Consider two compounds from patent EP0444482B1, “Oxetanones” (F. HOFFMANN-LA ROCHE AG, priority 1990, dated 1991).

One series deals with T1, Schweinepankreaslipase (Sus scrofa, UniProt P00591).
T1 sequence (P00591 1-450): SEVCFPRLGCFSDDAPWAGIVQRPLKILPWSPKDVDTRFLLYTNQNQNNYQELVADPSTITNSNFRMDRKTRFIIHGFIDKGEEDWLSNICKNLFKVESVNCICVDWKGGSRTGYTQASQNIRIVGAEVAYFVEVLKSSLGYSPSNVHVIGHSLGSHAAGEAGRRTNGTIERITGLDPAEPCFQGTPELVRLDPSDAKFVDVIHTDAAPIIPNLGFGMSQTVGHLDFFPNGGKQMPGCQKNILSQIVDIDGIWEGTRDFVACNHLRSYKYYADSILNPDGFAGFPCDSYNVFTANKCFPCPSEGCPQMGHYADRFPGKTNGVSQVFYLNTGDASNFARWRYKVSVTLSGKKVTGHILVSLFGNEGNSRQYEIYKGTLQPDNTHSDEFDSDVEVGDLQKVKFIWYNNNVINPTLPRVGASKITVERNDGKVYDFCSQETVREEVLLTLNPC
Description: Inhibition of pancreatic lipase (titrimetric measurement of oleic acid released from triolein). The settings on record: substrate triolein emulsion, pH 8, NaOH consumption over 10 min, 1-3 µg lipase; concentration giving half-maximal inhibition of lipase activity; read-out: IC₅₀ (converted). In kind it is biochemical, Schwein. On the procedure:
Die Hemmung der Pankreaslipase durch die Oxetanone der Formel I kann experimentell gezeigt werden, indem man die bei der Spaltung von Triolein durch Schweinepankreaslipase freigesetzte Oelsäure titrimetrisch erfasst. Zu einer Emulsion, welche 1 mM Taurodeoxycholat, 9 mM Taurocholat, 0,1 mM Cholesterin, 1 mM Eilezithin, 15 mg/ml BSA, 2 mM Tris-HCl, 100 mM Natriumchlorid, 1 mM Calciumchlorid und das Substrat Triolein enthält, gibt man die in Aethanol oder Dimethylsulfoxid (10% des Emulsionsvolumens) gelöste Verbindung der Formel I und startet die Reaktion durch Zugabe von 1-3 µg Schweinepankreaslipase. Das pH wird während der Reaktion durch Zugabe von Natronlauge bei 8 gehalten. Aus dem während 10 Minuten ermittelten Verbrauch an Natronlauge wird die IC₅₀ berechnet. Die IC₅₀ ist diejenige Konzentration, bei der die Lipaseaktivität halbmaximal gehemmt wird. Die nachfolgende Tabelle enthält die für die Verbindungen der Formel I ermittelten IC₅₀-Werte in µg/ml.

Series [1] can be described thus: Acute toxicity after a single oral administration. The settings on record: mouse, in vivo, mice, read-out: akute Toxizität. On the procedure:
Die akute Toxizität (nach einmaliger oraler Verabreichung an Mäusen) beträgt mehr als 5000 mg/kg für die Produkte der Beispiele 3d, 3h, 3i, 3l, 4a und 10a, b, e und f.

Where only a bound is given, the exact number is not on record here.

Turning to `CCCCCCCCCCCCCCCCC[C@@H](C[C@@H]1OC(=O)[C@H]1CC)OC(=O)C(C)C(N)=O` (stereo partly drawn) [Beispiel 10e, (S)-1-[[(2S,3S)-3-Aethyl-4-oxo-2-oxetanyl]methyl]octadecyl-(RS)-2-methylmalonamat], the IC50 at Schweinepankreaslipase is 0.056 µM. Besides, the LD50 in series [1] was over 5000 mg/kg.

In the case of `CCCCCCCCCCCCCCCCC[C@@H](C[C@@H]1OC(=O)[C@H]1CC)OC(=O)CCC(N)=O` [Beispiel 10f, (S)-1-[[(2S,3S)-3-Aethyl-4-oxo-2-oxetanyl]methyl]octadecyl-succinamat], on Schweinepankreaslipase, the IC50 was 0.664 µM. Besides, the LD50 in series [1] was over 5000 mg/kg.
